In patent EP1984353B1, “AURORA KINASE MODULATORS AND METHOD OF USE” (Amgen, Inc, priority 2006, dated 2007):
Where two headings read alike, the source gives them in different places.

Key:
[1] = system: phosphorylation of Histone H3; assay: HeLa cell 1-hour phospho-histone assay; assay type: cell-based; conditions: Homo sapiens, HeLa, 1 h, HeLa cells
Procedure: HeLa cell 1-hour phospho-histone assay
The purpose of this assay is to test the inhibitory effect of Aurora compounds with respect to phosphorylation of Histone H3 in the cellular context. HeLa cells (9x10^4/well) are plated in black 96-well flat-bottom tissue culture plates and incubated for 40 hours prior to compound addition. Compounds are serially diluted in DMSO, followed by dilution into MEM containing […] HEPES; 10ul/well of diluted compounds are added to cells (0.5% DMSO final). Cells are incubated for 1 hour at 37 °C in 5% CO2. Cells are then fixed with 3.7% formaldehyde for 10 minutes, washed with wash buffer (1% goat serum and 0.1% Tween 20 in PBS), then permeabilized with 0.5% Triton X in PBS for 15 minutes. After washing with wash buffer, cells are incubated with primary antibody (Upstate #06-507 anti-phospho-histone (Ser 10) antibody (pHH3) for 1 hour at 10ug/ml. After 2 washes with wash buffer, cells are incubated with secondary antibody (Molecular Probes #A11034 goat anti-rabbit Alexa-488 for 1 hour at 1ug/ml + Hoechst 33342 nuclear dye at 1ug/ml (Molecular Probes). Cells are washed 2 times with wash buffer, and buffer replaced with PBS. Plates are scanned on the Cellomics Array Scan (6 fields, ~2000 cells/well) and % of cells that are pHH3 positive were calculated using the Cellomics algorithm.

AuroraB = target: T1, AuroraB (Homo sapiens, UniProt Q96GD4); assay: AuroraB Homogeneous Time Resolved Fluorescent (HTRF) kinase assay; assay type: biochemical
T1 construct: 20 µL of AuroraB FL His; His
How it was run: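 HTRF read-out: after EDTA stop and ~60 min with europium anti-phospho-H3 antibody and streptavidin-APC, 655/615 nm ratio reports phosphorylation. Reaction: 400 pM AuroraB FL His, 23 µM ATP (at Km(app)), 0.1 µM biotin-Histone H3 peptide, 50 mM HEPES pH 7.5, MgCl/MnCl, ~90 min.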

AuroraA-TPX2 = target: T2, AuroraA-TPX2 (Homo sapiens, UniProt O14965); assay: AuroraA-TPX2 Homogeneous Time Resolved Fluorescent (HTRF) kinase assay; assay type: biochemical; conditions: average, read-out: AurA/TP X2_ IC50_IP (Avg)
T2 construct: 20 µL of AuroraA-TPX2 KD GST; GST
T2 sequence (O14965 133-383 limits assumed): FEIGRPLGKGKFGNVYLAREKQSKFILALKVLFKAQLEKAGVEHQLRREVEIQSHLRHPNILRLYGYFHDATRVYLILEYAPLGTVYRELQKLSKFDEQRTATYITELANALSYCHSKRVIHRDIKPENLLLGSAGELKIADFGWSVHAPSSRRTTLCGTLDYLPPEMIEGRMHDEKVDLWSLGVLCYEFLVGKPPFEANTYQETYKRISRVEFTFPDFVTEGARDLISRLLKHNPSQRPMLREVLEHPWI
T2 sequence (Q9ULW0 1-43 partner limits assumed): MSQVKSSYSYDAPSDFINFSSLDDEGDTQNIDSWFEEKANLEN
How it was run: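 HTRF read-out: europium anti-phosphoPLK antibody (0.02 nM) plus streptavidin-APC detect phosphorylated biotin-PLK after EDTA stop and overnight equilibration. Kinase step runs about 120 min with Aurora-A/TPX2, ATP and roughly 1 µM PLK peptide at pH 7.5 HEPES buffer with Mg2+ and DTT.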

[2] = 1 hour incubation, % of cells pHH3 positive, read-out: inhibitory activity (EC50) in the phospho-histone H3 assay
[3] = 1 hour, average, given as class symbols, read-out: pHH3 EC50_IP (Avg)
[4] = average, given as class symbols, read-out: AurB_ _IC50_IP (Avg)
[5] = 1 hour, average, given as numbers, unit inferred, read-out: pHH3 EC50_IP (Avg)
[6] = given as numbers, unit inferred
[7] = average, given as numbers, unit inferred, read-out: AurB_ _IC50_IP (Avg)

T1 sequence (Q96GD4 whole entry): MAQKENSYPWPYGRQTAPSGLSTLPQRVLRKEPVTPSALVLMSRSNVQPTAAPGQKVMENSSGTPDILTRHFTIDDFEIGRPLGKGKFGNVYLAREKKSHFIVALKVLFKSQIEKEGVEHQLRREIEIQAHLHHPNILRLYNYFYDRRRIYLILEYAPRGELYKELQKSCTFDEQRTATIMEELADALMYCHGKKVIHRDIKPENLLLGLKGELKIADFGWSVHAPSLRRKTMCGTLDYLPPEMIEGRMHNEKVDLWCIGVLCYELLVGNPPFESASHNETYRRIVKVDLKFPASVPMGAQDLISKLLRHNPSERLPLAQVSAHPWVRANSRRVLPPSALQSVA

EC50 [1, 3] [nM]	EC50 [1, 5] [nM]	SMILES	further results
		CNc1cc(-c2cccnc2Oc2ccc(Nc3nnc(-c4ccccc4)c4c3CCC4)cn2)ccn1 [Example 120, N-methyl-2-((5-((4-phenyl-6,7-dihydro-5H-cyclopenta[d]pyridazin-1-yl)amino)-2-pyridinyl)oxy)-3,4'-bipyridin-2'-amine]	EC50 [1, 2]: < 1000 nM
		Nc1[nH]ncc1-c1cccnc1Oc1ccc(Nc2nnc(-c3ccccc3)c3ccccc23)cc1 [Example 238, N-(4-((3-(5-amino-1H-pyrazol-4-yl)-2-pyridinyl)oxy)phenyl)-4-phenyl-1-phthalazinamine]	EC50 [1, 2]: < 1000 nM; IC50 (AuroraB; read-out: inhibitory activity (IC50) in the Aurora kinase B HTRF assay): < 500 nM
500 to 2500		Nc1nccc(-c2cccnc2Oc2ccc(Nc3nnc(-c4ccccc4)cc3-c3ccccc3)cc2)n1 [compound 246, N-(4-((3-(2-amino-4-pyrimidinyl)-2-pyridinyl)oxy)phenyl)-4,6-diphenyl-3-pyridazinamine]	IC50 (AuroraA-TPX2; given as class symbols): 500 to 2500 nM; IC50 (AuroraB; [4]): ≤ 100 nM
	335	Nc1nccc(-c2cccnc2Oc2ccc(Nc3nnc(-c4ccc(CCO)cc4)c4ccccc34)cc2)n1 [compound 247, 2-(4-(4-((4-((3-(2-amino-4-pyrimidinyl)-2-pyridinyl)oxy)phenyl)amino)-1-phthalazinyl)phenyl)ethanol]	IC50 (AuroraA-TPX2; [6]): 19.8 nM; IC50 (AuroraB; [7]): 4.2 nM
	465	CNc1nccc(-c2cccnc2Oc2ccc(Nc3nnc(-c4ccccc4)c4ccccc34)nc2)n1 [compound 248, N-(5-((3-(2-(methylamino)-4-pyrimidinyl)-2-pyridinyl)oxy)-2-pyridinyl)-4-phenyl-1-phthalazinamine]	IC50 (AuroraA-TPX2; [6]): 149 nM; IC50 (AuroraB; [7]): 11 nM
100 to 500		Nc1nccc(-c2cccnc2Oc2ccc(Nc3nnc(-c4ccc(CO)cc4)c4ccccc34)cc2)n1 [compound 249, (4-(4-((4-((3-(2-amino-4-pyrimidinyl)-2-pyridinyl)oxy)phenyl)amino)-1-phthalazinyl)phenyl)methanol]	IC50 (AuroraA-TPX2; given as class symbols): ≤ 100 nM; IC50 (AuroraB; [4]): ≤ 100 nM
	175	Nc1nccc(-c2cccnc2Oc2ccc(Nc3nnc(-c4ccccc4)c4ccoc34)cc2)n1 [compound 250, N-(4-((3-(2-amino-4-pyrimidinyl)-2-pyridinyl)oxy)phenyl)-4-phenylfuro[2,3-d]pyridazin-7-amine]	IC50 (AuroraA-TPX2; [6]): 30.3 nM; IC50 (AuroraB; [7]): 19.9 nM
	41.7	Cc1csc(-c2nnc(Nc3ccc(Oc4ncccc4-c4ccnc(N)n4)cc3)c(C)c2C)c1 [compound 259, N-(4-((3-(2-amino-4-pyrimidinyl)-2-pyridinyl)oxy)phenyl)-4,5-dimethyl-6-(4-methyl-2-thienyl)-3-pyridazinamine]	IC50 (AuroraA-TPX2; [6]): 5.9 nM; IC50 (AuroraB; [7]): 2.8 nM
	228	Nc1nccc(-c2cccnc2Oc2ccc(Nc3ncc(-c4ccccc4)c4ccccc34)cc2)n1 [compound 260, N-(4-((3-(2-amino-4-pyrimidinyl)-2-pyridinyl)oxy)phenyl)-4-phenyl-1-isoquinolinamine]	IC50 (AuroraA-TPX2; [6]): 33 nM; IC50 (AuroraB; [7]): 14.8 nM
500 to 2500		c1ccc(-c2nnc(Nc3ccc(Oc4nccnc4-c4ccncc4)cc3)c3ccccc23)cc1 [compound 261, 4-phenyl-N-(4-((3-(4-pyridinyl)-2-pyrazinyl)oxy)phenyl)-1-phthalazinamine]	IC50 (AuroraA-TPX2; given as class symbols): 100 to 500 nM; IC50 (AuroraB; [4]): 100 to 500 nM
	334	Cc1csc(-c2cnc(Nc3ccc(Oc4ncccc4-c4ccnc(N)n4)cc3)c3ccccc23)c1 [compound 262, N-(4-((3-(2-amino-4-pyrimidinyl)-2-pyridinyl)oxy)phenyl)-4-(4-methyl-2-thienyl)-1-isoquinolinamine]	IC50 (AuroraA-TPX2; [6]): 34.8 nM; IC50 (AuroraB; [7]): 15.8 nM
500 to 2500		Cc1cc(Br)cnc1Nc1ccc(Oc2ncccc2-c2ccncc2)cc1 [compound 264, N-(4-(3,4'-bipyridin-2-yloxy)phenyl)-5-bromo-3-methyl-2-pyridinamine]	IC50 (AuroraB; [4]): 500 to 2500 nM
≤ 100		Cc1csc(-c2nnc(Nc3ccc(Oc4ncccc4-c4ccnc(N)n4)cc3)c3ccccc23)c1 [compound 331, N-(4-((3-(2-amino-4-pyrimidinyl)-2-pyridinyl)oxy)phenyl)-4-(4-methyl-2-thienyl)-1-phthalazinamine]	IC50 (AuroraB; [4]): ≤ 100 nM
≤ 100		Nc1nccc(-c2cccnc2Oc2ccc(Nc3nnc(-c4ccccc4)c4ccccc34)cn2)n1 [compound 415, N-(6-((3-(2-amino-4-pyrimidinyl)-2-pyridinyl)oxy)-3-pyridinyl)-4-phenyl-1-phthalazinamine]	
	134	Cc1csc(-c2nnc(Nc3ccc(Oc4ncccc4-c4ccnc(N)c4)cc3)c3ccccc23)c1 [compound 416, 2-((4-((4-(4-methyl-2-thienyl)-1-phthalazinyl)amino)phenyl)oxy)-3,4'-bipyridin-2'-amine]	
100 to 500		Cc1cc(-c2ccccc2)nnc1Nc1ccc(Oc2ncccc2-c2ccnc(N)c2)cc1 [compound 418, 2-((4-((4-methyl-6-phenyl-3-pyridazinyl)amino)phenyl)oxy)-3,4'-bipyridin-2'-amine]	
100 to 500		Cc1csc(-c2cc(C)c(Nc3ccc(Oc4ncccc4-c4ccnc(N)c4)cc3)nn2)c1 [compound 419, 2-((4-((4-methyl-6-(4-methyl-2-thienyl)-3-pyridazinyl)amino)phenyl)oxy)-3,4'-bipyridin-2'-amine]	
	314	CCc1cc(-c2ccccc2)nnc1Nc1ccc(Oc2ncccc2-c2ccnc(N)c2)cc1 [compound 420, 2-((4-((4-ethyl-6-phenyl-3-pyridazinyl)amino)phenyl)oxy)-3,4'-bipyridin-2'-amine]	
500 to 2500		O=C(O)CCCNc1nccc(-c2cccnc2Oc2ccc(Nc3nnc(-c4ccccc4)c4ccccc34)cc2)n1 [compound 427, 4-((4-(2-((4-((4-phenyl-1-phthalazinyl)amino)phenyl)oxy)-3-pyridinyl)-2-pyrimidinyl)amino)butanoic acid]	
500 to 2500		Cc1csc(-c2cc(C)c(Nc3ccc(Oc4ncccc4-c4ccncc4)cc3)nn2)c1 [compound 428, N-(4-(3,4'-bipyridin-2-yloxy)phenyl)-4-methyl-6-(4-methyl-2-thienyl)-3-pyridazinamine]	
100 to 500		Cc1cc(-c2ccccc2)nnc1Nc1ccc(Oc2ncccc2-c2ccnc(NCCCO)n2)cc1 [compound 429, 3-((4-(2-((4-((4-methyl-6-phenyl-3-pyridazinyl)amino)phenyl)oxy)-3-pyridinyl)-2-pyrimidinyl)amino)-1-propanol]	
500 to 2500		Cc1cc(-c2ccccc2)nnc1Nc1ccc(Oc2ncccc2-c2ccnc(NCCCC(=O)O)n2)cc1 [compound 430, 4-((4-(2-((4-((4-methyl-6-phenyl-3-pyridazinyl)amino)phenyl)oxy)-3-pyridinyl)-2-pyrimidinyl)amino)butanoic acid]	
≤ 100		Nc1cc(-c2cccnc2Oc2ccc(Nc3nnc(-c4ccccc4)c4ccccc34)cn2)ccn1 [compound 431, 2-((5-((4-phenyl-l-phthalazinyl)amino)-2-pyridinyl)oxy)-3,4'-bipyridin-2'-amine]	
500 to 2500		O=c1cc(-c2cccnc2Oc2ccc(Nc3nnc(-c4ccccc4)c4ccccc34)cc2)cc[nH]1 [compound 432, 2-((4-((4-phenyl-1-phthalazinyl)amino)phenyl)oxy)-3,4'-bipyridin-2'(1'H)-one]	
	1000	Cc1csc(-c2cc(C)c(Nc3ccc(Oc4ncccc4-c4ccnc(N)c4)cc3)nn2)n1 [compound 434, 2-((4-((4-methyl-6-(4-methyl-1,3-thiazol-2-yl)-3-pyridazinyl)amino)phenyl)oxy)-3,4'-bipyridin-2'-amine]	
